Reference: ChEMBL document CHEMBL1149848, “Prenylated flavonoid derivatives from the bark of Erythrina addisoniae” (J Nat Prod, 2008)
Active and inactive are the calls of the source. The calls are words filed in the database; no cut-off is given here.

How the values were obtained:
Assay type in all cases: functional, cell-based
[1] = tested on: H4IIE; test: Cytotoxicity against rat H4IIE cells assessed as nuclear fragmentation after 24 hrs by Hoechst staining
[2] = tested on: H4IIE; test: Cytotoxicity against rat H4IIE cells assessed as caspase-3/7 activation after 24 hrs by Apo-ONE assay
[3] = Cytotoxicity against rat H4IIE cells after 24 hrs by MTT assay

| Compound | Activity [1] | Activity [2] | IC50 [3] [µM] |
| --- | --- | --- | --- |
| C=C(C)C(O)Cc1cc([C@@H]2CC(=O)c3c(O)cc(O)cc3O2)cc(CC=C(C)C)c1O (some centres not stated) [ABYSSINOFLAVANONE VII] | Active | Active | 3.5 |
| COc1c(CC=C(C)C)cc([C@@H]2CC(=O)c3c(O)cc(O)cc3O2)cc1CC=C(C)C | – | – | 5 |
| O=C1C[C@@H](c2ccc(O)cc2)Oc2cc(O)ccc21 [LIQUIRTIGENIN] | – | – | > 100 |
| O=C1C[C@@H](c2ccc(O)cc2)Oc2cc(O)cc(O)c21 [NARINGENIN] | – | – | > 100 |
| CC(C)=CCc1cc([C@@H]2CC(=O)c3ccc(O)cc3O2)cc(CC=C(C)C)c1O [ABYSSINONE IV] | – | – | 15 |
